For the data set, the system named is senescent human IMR-90 fibroblast cells. It counts as cell-based. On the procedure: Human IMR-90, BJ, WI-38 fibroblasts and REC epithelial cells were obtained from ATCC and grown at 5% oxygen. IMR-90 and REC cells were maintained in DMEM medium comprising 100 units per ml of penicillin, […] of streptomycin and 10% fetal bovine serum. BJ and WI-38 cells were maintained in EMEM medium comprising 100 units per ml of penicillin, […] of streptomycin, 10% fetal bovine serum, 1% Pyruvate, 1% L-Glutamine, mLFs were isolated according to standard procedures [Seluanov, A., et al. J Vis Exp (2010) (44):2033] and grown at 5% oxygen. Cells were maintained in EMEM medium comprising 100 units per ml of penicillin, […] of streptomycin and 15% fetal bovine serum.
DNA damage induced senescence (DIS) was induced by etoposide treatment (E1383, Sigma) at a concentration of […] for IMR-90, BJ, and WI-38, 16 μM for mLF and 12.5 μM for REC for a duration of 48 hours. Cells acquired the senescence phenotype 7 days post treatment (determined by SA-beta-gal staining).
Oncogene Induced Senescence (OIS) was induced by means of retroviral infection with H-RasG12 (pLNCX2) at 5% oxygen. Retroviruses were packaged, and infections were performed as described below.
Replicative Induced Senescence (RIS) was induced by long-term passaging of the cells in tissue culture. Cells acquired the senescence phenotype after 40 population doublings.
Primary target cells (IMR-90, BJ, […]) were plated in 24-well plates at 100,000 cells per well. Cells were transfected with different concentrations of DNAzymes (as depicted in Table 2, below) using Lipofectamine™ 2000 (Invitrogen) according to manufacturer instructions. The percentage of survival was determined based on quantification of remaining adherent cells using PrestoBlue® reagent (A13262, Life Technologies Ltd.) relative to Lipofectamine™ only control and compared to Scramble DNAzyme (Dz_Scramble) [Scramble Arm (Scr A) sequence: ATCTTCCTFggctagctacaacgaCGCCTCTCC, SEQ ID NO: 5, or Scramble catalytic core (Scr B) sequence: AGGAGAACAacagtaactggcgacGGGATGAGG, SEQ ID NO: 86] treated cells, 3-6 days following transfection.
For the substance “1013 (DNA TAATTCTAAGGCTAGCTACAACGAGCCAGAGGC; chemistry not given here) [compound 1013]”, the Validated cytotoxicity result is “+”. Next, “1417 (DNA GCTCAGCCTCCGAGCCGGACGAAGGCTGTGC; chemistry not given here) [compound 1417]”: “+”; “2200 (DNA AGGCCAGTAGGCTAGCTACAACGAGTTACAGGA; chemistry not given here) [compound 2200]”: “+”.

“1610 (DNA AAGGGTAGTCCGAGCCGGACGAGGGGCTCCT; chemistry not given here) [compound 1610]”: the Validated cytotoxicity entry was “+”. Next, “1938 (DNA TTTGAGGGGGGCTAGCTACAACGACAGTGTCTC; chemistry not given here) [compound 1938]”: “+”; “1851 (DNA GTGCCACCAGGCTAGCTACAACGAATGGGACCC; chemistry not given here) [compound 1851]”: “+”; “185 (DNA CAGATCATGGGCTAGCTACAACGAAGCAAAGAA; chemistry not given here) [compound 185]”: “+”. Then “237 (DNA CCGTATACAGGCTAGCTACAACGATGCTGGGGA; chemistry not given here) [compound 237]”, with “+”; and “224 (DNA TGGGGAAATCCGAGCCGGACGAGGGGCTCAG; chemistry not given here) [compound 224]”, with “+”; and “111 (DNA CATCCTTTAGGCTAGCTACAACGATTCTGGGGT; chemistry not given here) [compound 111]”, with “+”. In the case of “225 (DNA CTGGGGAAAGGCTAGCTACAACGATGGGGCTCA; chemistry not given here) [compound 225]”, the Validated cytotoxicity entry is listed as “+”. Next, “603 (DNA ATCCCGGCTCCGAGCCGGACGACGCCGGGGC; chemistry not given here) [compound 603]”: “+”; “1003 (DNA GCCAGAGGTCCGAGCCGGACGAGGGGGGCAG; chemistry not given here) [compound 1003]”: “+”; “1986 (DNA GCAATGAATCCGAGCCGGACGAGGGGAGGGA; chemistry not given here) [compound 1986]”: “+”. As to “1976 (DNA GGGGAGGGAGGCTAGCTACAACGAGGGGTGGAT; chemistry not given here) [compound 1976]”, the Validated cytotoxicity result is given as “+”.

“1467 (DNA TTCACAAGAGGCTAGCTACAACGAAGAGGGGGG; chemistry not given here) [compound 1467]”: the Validated cytotoxicity result is on record as “+”. Take “78 (DNA TGTCTCCTAGGCTAGCTACAACGACATCCCCTT; chemistry not given here) [compound 78]”: the Validated cytotoxicity result is reported as “+”. Then “236 (DNA CGTATACATCCGAGCCGGACGAGCTGGGGAA; chemistry not given here) [compound 236]”, with “+”; and “974 (DNA GGGTATGTAGGCTAGCTACAACGAATGAGGAGG; chemistry not given here) [compound 974]”, with “+”; and “2266 (DNA AGAGGTTTAGGCTAGCTACAACGAAGTCTAGGT; chemistry not given here) [compound 2266]”, with “+”. Then “352 (DNA GTTCTGACAGGCTAGCTACAACGAGGCGCCTGA; chemistry not given here) [compound 352]”, with “+”. Next, “304 (DNA TTTGTTGGTCCGAGCCGGACGAAGGAAGGGG; chemistry not given here) [compound 304]”: “+”; “377 (DNA GGGTTCTGAGGCTAGCTACAACGAGGACATCCC; chemistry not given here) [compound 377]”: “+”; “495 (DNA GAAGTTCCAGGCTAGCTACAACGACGCTCACGG; chemistry not given here) [compound 495]”: “+”. For “1089 (DNA TAAATAGTAGGCTAGCTACAACGATTCATAAAA; chemistry not given here) [compound 1089]”, the Validated cytotoxicity entry was “+”. For the substance “317 (DNA TGGTTGCAGGGCTAGCTACAACGAAGCTTTGTT; chemistry not given here) [compound 317]”, the Validated cytotoxicity entry is “+”. For “442 (DNA AGTCGCGGTCCGAGCCGGACGACAGCTGCTC; chemistry not given here) [compound 442]”, the Validated cytotoxicity result is on record as “+”. Next, “1591 (DNA CAAAAGGTAGGCTAGCTACAACGAAGGGGAGCC; chemistry not given here) [compound 1591]”: “+”; “75 (DNA CTCCTACCAGGCTAGCTACAACGACCCCTTCCT; chemistry not given here) [compound 75]”: “+”. On to “1873 (DNA ATAACCCCAGGCTAGCTACAACGATCAAGGGGG; chemistry not given here) [compound 1873]”, for which the Validated cytotoxicity result is reported as “+”. Then “846 (DNA GTGGGCGGAGGCTAGCTACAACGATAGGGCTTC; chemistry not given here) [compound 846]”, with “+”. In the case of “387 (DNA GCTGCCGCAGGCTAGCTACAACGAGGGTTCTGA; chemistry not given here) [compound 387]”, the Validated cytotoxicity entry was “+”. Next, “1641 (DNA AGAGGGGAAGGCTAGCTACAACGATGCAGAGCC; chemistry not given here) [compound 1641]”: “+”; “1582 (DNA CAGGGGAGTCCGAGCCGGACGAAAAGAGGGA; chemistry not given here) [compound 1582]”: “+”. Next, “1736 (DNA CCATTGAGTCCGAGCCGGACGAGGGGGTGGG; chemistry not given here) [compound 1736]”: “+”. Next, “1872 (DNA TAACCCCATCCGAGCCGGACGACAAGGGGGC; chemistry not given here) [compound 1872]”: “+”.

“364 (DNA TGACGGACAGGCTAGCTACAACGACCCCAGCCG; chemistry not given here) [compound 364]”: the Validated cytotoxicity entry is given as “+”. Turning to “1524 (DNA GAGGGGCCAGGCTAGCTACAACGAGAGGGCAGG; chemistry not given here) [compound 1524]”, the Validated cytotoxicity entry is reported as “+”. Next, “1791 (DNA TGCCTGAGGGGCTAGCTACAACGAAGAACTAGG; chemistry not given here) [compound 1791]”: “+”; “1947 (DNA GCTGGACGAGGCTAGCTACAACGATTGAGGGGC; chemistry not given here) [compound 1947]”: “+”; “1719 (DNA GGGGTGGGAGGCTAGCTACAACGAAGGCACCTC; chemistry not given here) [compound 1719]”: “+”. Then “1684 (DNA GAGAGGGTAGGCTAGCTACAACGATGAAGGGAA; chemistry not given here) [compound 1684]”, with “+”; and “354 (DNA CGGTTCTGAGGCTAGCTACAACGAATGGCGCCT; chemistry not given here) [compound 354]”, with “+”. Then “1786 (DNA GAGGTAGAAGGCTAGCTACAACGATAGGGTGCC; chemistry not given here) [compound 1786]”, with “+”. As to “1683 (DNA AGAGGGTATCCGAGCCGGACGAGAAGGGAAA; chemistry not given here) [compound 1683]”, the Validated cytotoxicity entry was “+”. Turning to “100 (DNA TCTGGGGTTCCGAGCCGGACGATTAGAGGTC; chemistry not given here) [compound 100]”, the Validated cytotoxicity entry was “+”. Then “1854 (DNA CCTGTGCCAGGCTAGCTACAACGACACATGGGA; chemistry not given here) [compound 1854]”, with “+”.

For the substance “16 (DNA CCTCTTCTAGGCTAGCTACAACGAGCCAGAGCT; chemistry not given here) [compound 16]”, the Validated cytotoxicity result is “+”. Then “1838 (DNA GGACCCTCAGGCTAGCTACAACGACCCCACAGC; chemistry not given here) [compound 1838]”, with “+”; and “252 (DNA TACTCCCCAGGCTAGCTACAACGAATAGCCCGT; chemistry not given here) [compound 252]”, with “+”.

(Values after patent US11879140B2, “P21 mRNA targeting DNAzymes” (1E Therapeutics Ltd., priority 2020, dated 2024).)
